How the values were obtained:
barnyardgrass = experiment: Test A pre-/postemergence greenhouse test; format: in vivo, Echinochloa crus-galli; settings: for Barnyardgrass plant response rating: 0 to 100 scale
How it was run: (§1)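 Planting was into mixed loam soil and sand; preemergence treatment followed as a directed soil spray. Concurrently, emerged plants (one- to two-leaf, 2–10 cm) received postemergence applications of identically formulated compound (non-phytotoxic solvent, surfactant). After approximately ten days under greenhouse conditions, injury was judged by eye against untreated plants.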

morningglory [1] = experiment: Test A pre-/postemergence greenhouse test; format: in vivo, Ipomoea spp.; settings: for Morningglory plant response rating: 0 to 100 scale
How it was run: as §1

blackgrass = experiment: Test C pre-/postemergence test; format: in vivo, Alopecurus myosuroides; settings: Postemergence; for Plant response rating, Blackgrass: scale 0 to 100, 0 no effect, 100 complete control
Excerpt: (§2) Seeds of plant species selected from blackgrass (Alopecurus myosuroides), downy brome (Bromus tectorum), green foxtail (Setaria viridis), Italian ryegrass (Lolium multiflorum), wheat (Triticum aestivum), wild oat (Avena fatua), catchweed bedstraw (Galium aparine), Russian thistle (Salsola kali), […] (Cynodon dactylon), Surinam grass (Brachiaria decumbens), cocklebur (Xanthium strumarium), corn (Zea mays), crabgrass (Digitaria sanguinalis), woolly cupgrass (Eriochloa villosa), giant foxtail (Setaria faberii), Goosegrass (Eleusin indica), johnsongrass (Sorghum halepense), kochia (Kochia scoparia), lambsquarters (Chenopodium album), morningglory (Ipomoea coccinea), eastern black nightshade (Solanum ptycanthum), yellow nutsedge (Cyperus esculentus), pigweed (Amaranthus retroflexus), common ragweed (Ambrosia elation), soybean (Glycine max), common (oilseed) sunflower (Helianthus annuus), and velvetleaf (Abutilon theophrasti) were planted and treated preemergence with test chemicals formulated in a non-phytotoxic solvent mixture which included a surfactant. At the same time, plants selected from these crop and weed species and also winter barley (Hordeum vulgare), canarygrass (Phalaris minor), and chickweed (Stellaria media) were treated with postemergence applications of some of the test chemicals formulated in the same manner. Plants ranged in height from 2 to 18 cm (1- to 4-leaf stage) for postemergence treatments. […] At time of treatment, test pots were flooded to 3 cm above the soil surface, treated by application of test compounds directly to the paddy water, and then maintained at that water depth for the duration of the test. […] A dash (-) response means no test result.

green foxtail = experiment: Test C pre-/postemergence test; format: in vivo, Setaria viridis; settings: Postemergence; for Plant response rating, Foxtail, Green: scale 0 to 100, 0 no effect, 100 complete control
Excerpt: as §2

Italian ryegrass = experiment: Test C pre-/postemergence test; format: in vivo, Lolium multiflorum; settings: Postemergence; for Plant response rating, Ryegrass, Italian: scale 0 to 100, 0 no effect, 100 complete control
Excerpt: as §2

wheat = experiment: Test C pre-/postemergence test; format: in vivo, Triticum aestivum; settings: Postemergence; for Plant response rating, Wheat: scale 0 to 100, 0 no effect, 100 complete control
Excerpt: as §2

cocklebur = experiment: Test C pre-/postemergence test; format: in vivo, Xanthium strumarium; settings: Postemergence; for Plant response rating, Cocklebur: scale 0 to 100, 0 no effect, 100 complete control
Excerpt: as §2

corn = experiment: Test C pre-/postemergence test; format: in vivo, Zea mays; settings: Postemergence; for Plant response rating, Corn: scale 0 to 100, 0 no effect, 100 complete control
Excerpt: as §2

crabgrass = experiment: Test C pre-/postemergence test; format: in vivo, Digitaria sanguinalis; settings: Postemergence; for Plant response rating, Crabgrass, Large: scale 0 to 100, 0 no effect, 100 complete control
Excerpt: as §2

woolly cupgrass = experiment: Test C pre-/postemergence test; format: in vivo, Eriochloa villosa; settings: Postemergence; for Plant response rating, Cupgrass, Woolly: scale 0 to 100, 0 no effect, 100 complete control
Excerpt: as §2

kochia = experiment: Test C pre-/postemergence test; format: in vivo, Kochia scoparia; settings: Postemergence; for Plant response rating, Kochia: scale 0 to 100, 0 no effect, 100 complete control
Excerpt: as §2

morningglory [2] = experiment: Test C pre-/postemergence test; format: in vivo, Ipomoea coccinea; settings: Postemergence; for Plant response rating, Morningglory: scale 0 to 100, 0 no effect, 100 complete control
Excerpt: as §2

yellow nutsedge = experiment: Test C pre-/postemergence test; format: in vivo, Cyperus esculentus; settings: Postemergence; for Plant response rating, Nutsedge, Yellow: scale 0 to 100, 0 no effect, 100 complete control
Excerpt: as §2

pigweed = experiment: Test C pre-/postemergence test; format: in vivo, Amaranthus retroflexus; settings: Postemergence; for Plant response rating, Pigweed: scale 0 to 100, 0 no effect, 100 complete control
Excerpt: as §2

soybean = experiment: Test C pre-/postemergence test; format: in vivo, Glycine max; settings: Postemergence; for Plant response rating, Soybean: scale 0 to 100, 0 no effect, 100 complete control
Excerpt: as §2

umbrella sedge = experiment: Test C flooded paddy test; format: in vivo, Cyperus difformis; settings: Flood
How it was run: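 Pots were flooded to 3 cm above the soil surface at treatment, compound applied directly to the paddy water, and that depth held throughout. Plants were kept in a greenhouse for 13 to 15 days, then visually rated against untreated controls.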

[3] = Postemergence, 125 g ai/ha, 0 is no effect, 100 is complete control
[4] = Postemergence, 500 g ai/ha, 0 is no effect, 100 is complete control
[5] = Preemergence, 125 g ai/ha, 0 no effect, 100 complete control
[6] = Preemergence, 500 g ai/ha, 0 to 100 scale where 0 is no effect and 100 is complete control

## CC(c1c(C(F)(F)F)nn(C)c1Cl)S(=O)(=O)c1ccc(Cl)c[n+]1[O-] (racemic) [Compound 40]
barnyardgrass; [3]
  Barnyardgrass plant response rating: 80
barnyardgrass; [4]
  Barnyardgrass plant response rating: 90
barnyardgrass; [5]
  Barnyardgrass plant response rating: 70
barnyardgrass; [6]
  Plant response rating, Barnyardgrass: 100
Morningglory [1]; [3]
  Morningglory plant response rating: 0
Morningglory [1]; [4]
  Morningglory plant response rating: 30
Morningglory [1]; [5]
  Morningglory plant response rating: 0
Morningglory [1]; [6]
  Plant response rating, Morningglory: 80
blackgrass; 31 g ai/ha
  Plant response rating (0 to 100), Blackgrass: 0
blackgrass; 62 g ai/ha
  Plant response rating, Blackgrass: 0
blackgrass; 125 g ai/ha
  Plant response rating, Blackgrass: 0
blackgrass; 250 g ai/ha
  Plant response rating, Blackgrass: 0
Green foxtail; 31 g ai/ha
  Plant response rating (0 to 100), Foxtail, Green: 0
Green foxtail; 62 g ai/ha
  Plant response rating, Foxtail, Green: 0
Green foxtail; 125 g ai/ha
  Plant response rating, Foxtail, Green: 0
Green foxtail; 250 g ai/ha
  Plant response rating, Foxtail, Green: 5
Italian ryegrass; 31 g ai/ha
  Plant response rating (0 to 100), Ryegrass, Italian: 0
Italian ryegrass; 62 g ai/ha
  Plant response rating (0 to 100), Ryegrass, Italian: 0
Italian ryegrass; 125 g ai/ha
  Plant response rating, Ryegrass, Italian: 40
Italian ryegrass; 250 g ai/ha
  Plant response rating, Ryegrass, Italian: 45
wheat; 31 g ai/ha
  Plant response rating (0 to 100), Wheat: 0
wheat; 62 g ai/ha
  Plant response rating (0 to 100), Wheat: 0
wheat; 125 g ai/ha
  Plant response rating, Wheat: 0
wheat; 250 g ai/ha
  Plant response rating, Wheat: 5
cocklebur; 31 g ai/ha
  Plant response rating (0 to 100), Cocklebur: 0
cocklebur; 62 g ai/ha
  Plant response rating, Cocklebur: 0
cocklebur; 125 g ai/ha
  Plant response rating, Cocklebur: 0
cocklebur; 250 g ai/ha
  Plant response rating, Cocklebur: 0
corn; 31 g ai/ha
  Plant response rating (0 to 100), Corn: 0
corn; 62 g ai/ha
  Plant response rating, Corn: 0
corn; 125 g ai/ha
  Plant response rating, Corn: 0
corn; 250 g ai/ha
  Plant response rating, Corn: 0
crabgrass; 31 g ai/ha
  Plant response rating (0 to 100), Crabgrass, Large: 0
crabgrass; 62 g ai/ha
  Plant response rating, Crabgrass, Large: 0
crabgrass; 125 g ai/ha
  Plant response rating, Crabgrass, Large: 0
crabgrass; 250 g ai/ha
  Plant response rating, Crabgrass, Large: 0
Woolly cupgrass; 31 g ai/ha
  Plant response rating (0 to 100), Cupgrass, Woolly: 0
Woolly cupgrass; 62 g ai/ha
  Plant response rating, Cupgrass, Woolly: 0
Woolly cupgrass; 125 g ai/ha
  Plant response rating, Cupgrass, Woolly: 0
Woolly cupgrass; 250 g ai/ha
  Plant response rating, Cupgrass, Woolly: 0
kochia; 31 g ai/ha
  Plant response rating (0 to 100), Kochia: 0
kochia; 62 g ai/ha
  Plant response rating, Kochia: 0
kochia; 125 g ai/ha
  Plant response rating, Kochia: 0
kochia; 250 g ai/ha
  Plant response rating, Kochia: 0
Morningglory [2]; 31 g ai/ha
  Plant response rating (0 to 100), Morningglory: 0
Morningglory [2]; 62 g ai/ha
  Plant response rating, Morningglory: 0
Morningglory [2]; 125 g ai/ha
  Plant response rating, Morningglory: 0
Morningglory [2]; 250 g ai/ha
  Plant response rating, Morningglory: 0
Yellow nutsedge; 31 g ai/ha
  Plant response rating (0 to 100), Nutsedge, Yellow: 0
Yellow nutsedge; 62 g ai/ha
  Plant response rating, Nutsedge, Yellow: 0
Yellow nutsedge; 125 g ai/ha
  Plant response rating, Nutsedge, Yellow: 0
Yellow nutsedge; 250 g ai/ha
  Plant response rating, Nutsedge, Yellow: 0
pigweed; 31 g ai/ha
  Plant response rating (0 to 100), Pigweed: 0
pigweed; 62 g ai/ha
  Plant response rating (0 to 100), Pigweed: 0
pigweed; 125 g ai/ha
  Plant response rating, Pigweed: 0
pigweed; 250 g ai/ha
  Plant response rating, Pigweed: 0
soybean; 31 g ai/ha
  Plant response rating (0 to 100), Soybean: 0
soybean; 62 g ai/ha
  Plant response rating (0 to 100), Soybean: 0
soybean; 125 g ai/ha
  Plant response rating, Soybean: 0
soybean; 250 g ai/ha
  Plant response rating, Soybean: 0
Umbrella sedge; 31 g ai/ha, scale 0 to 100 (0 no effect, 100 complete control)
  Plant response rating, Sedge, Umbrella: 20
Umbrella sedge; 62 g ai/ha, scale 0 to 100, 0 no effect, 100 complete control, 13 to 15 days
  Plant response rating, Sedge, Umbrella: 45
Umbrella sedge; 125 g ai/ha, scale 0 to 100, 0 no effect, 100 complete control, 13 to 15 days
  Plant response rating, Sedge, Umbrella: 75
Umbrella sedge; 250 g ai/ha, scale 0 to 100, 0 no effect, 100 complete control, 13 to 15 days
  Plant response rating, Sedge, Umbrella: 85
